Assay results published in the supplement of paper PMC10307832.

Columns and labels:
Test in all cases: relative viability (nuclei count vs DMSO), 5 days (fraction); higher = more cells survive
Ispinesib + Decitabine = compound: Cc1ccc(C(=O)N(CCCN)[C@@H](c2nc3cc(Cl)ccc3c(=O)n2Cc2ccccc2)C(C)C)cc1 [Ispinesib] + Nc1ncn([C@H]2C[C@H](O)[C@@H](CO)O2)c(=O)n1 [Decitabine] (partner 2 µM)
Outline: (§1)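 Relative viability divides the nuclei count in treated wells by that in vehicle wells. Lung cancer cell lines were seeded in 1536-well plates, dosed by pin tool the next day, and fixed and stained after 5 days in one step with final 0.05% Triton X-100, 1% formaldehyde and 1 ug/ml Hoechst. Dosing was a single drug or a fixed anchor-drug dose plus five library-drug doses (not always all listed) in √10 steps, and values are medians of duplicate plates imaged at 4×.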

Linsitinib + Crizotinib = compound: C[C@]1(O)C[C@@H](c2nc(-c3ccc4ccc(-c5ccccc5)nc4c3)c3c(N)nccn32)C1 [Linsitinib] + C[C@@H](Oc1cc(-c2cnn(C3CCNCC3)c2)cnc1N)c1c(Cl)ccc(F)c1Cl [Crizotinib] (partner 1 µM)
Outline: as §1

Ispinesib + Trametinib = compound: Cc1ccc(C(=O)N(CCCN)[C@@H](c2nc3cc(Cl)ccc3c(=O)n2Cc2ccccc2)C(C)C)cc1 [Ispinesib] + CC(=O)Nc1cccc(-n2c(=O)n(C3CC3)c(=O)c3c(Nc4ccc(I)cc4F)n(C)c(=O)c(C)c32)c1 [Trametinib] (partner 0.02 µM)
Outline: as §1

Ispinesib + Pictilisib = compound: Cc1ccc(C(=O)N(CCCN)[C@@H](c2nc3cc(Cl)ccc3c(=O)n2Cc2ccccc2)C(C)C)cc1 [Ispinesib] + CS(=O)(=O)N1CCN(Cc2cc3nc(-c4cccc5[nH]ncc45)nc(N4CCOCC4)c3s2)CC1 [Pictilisib] (partner 1 µM)
Outline: as §1

Cell Line	relative viability (Ispinesib + Decitabine; first compound 0.001 µM)	relative viability (Ispinesib + Decitabine; first compound 0.003162 µM)	relative viability (Ispinesib + Decitabine; first compound 0.01 µM)	relative viability (Ispinesib + Decitabine; first compound 0.03162 µM)	relative viability (Ispinesib + Decitabine; first compound 0.1 µM)	relative viability (Linsitinib + Crizotinib; first compound 0.01 µM)	relative viability (Linsitinib + Crizotinib; first compound 0.03162 µM)	relative viability (Linsitinib + Crizotinib; first compound 0.1 µM)	relative viability (Linsitinib + Crizotinib; first compound 0.3162 µM)	relative viability (Linsitinib + Crizotinib; first compound 1 µM)	relative viability (Ispinesib + Trametinib; first compound 0.001 µM)	relative viability (Ispinesib + Trametinib; first compound 0.003162 µM)	relative viability (Ispinesib + Trametinib; first compound 0.01 µM)	relative viability (Ispinesib + Trametinib; first compound 0.03162 µM)	relative viability (Ispinesib + Trametinib; first compound 0.1 µM)	relative viability (Ispinesib + Pictilisib; first compound 0.001 µM)	relative viability (Ispinesib + Pictilisib; first compound 0.003162 µM)	relative viability (Ispinesib + Pictilisib; first compound 0.01 µM)	relative viability (Ispinesib + Pictilisib; first compound 0.03162 µM)	relative viability (Ispinesib + Pictilisib; first compound 0.1 µM)
201T	0.849	0.859	0.897	0.889	0.839	1.02	1.03	1.07	1.11	1.01	0.743	0.75	0.729	0.692	0.678	0.724	0.733	0.677	0.643	0.652
LC-2-ad	0.847	0.787	0.872	0.815	0.54	0.479	0.566	0.451	0.357	0.311	0.934	0.944	0.92	0.9	0.474	0.507	0.509	0.438	0.0946	0.133
LCLC-97TM1	0.248	0.24	0.303	0.235	0.19	0.336	0.416	0.525	0.263	0.305	0.219	0.238	0.219	0.169	0.137	0.251	0.187	0.192	0.111	0.126
NCI-H1915	0.233	0.281	0.268	0.291	0.229	0.944	0.918	0.936	0.796	0.754	0.29	0.323	0.314	0.279	0.22	0.969	1.07	0.977	0.532	0.232
NCI-H3122	0.498	0.443	0.426	0.483	0.292	0.261	0.281	0.282	0.323	0.323	0.284	0.252	0.246	0.316	0.162	0.601	0.838	0.635	0.569	0.162
NCI-H1650	0.527	0.448	0.45	0.331	0.185	1.03	1.08	0.963	0.915	0.799	0.726	0.581	0.556	0.417	0.315	0.586	0.576	0.338	0.164	0.266
NCI-H1993	0.679	0.667	0.555	0.678	0.479	0.867	0.852	0.866	0.969	0.636	0.619	0.527	0.414	0.508	0.423	0.808	0.828	0.806	0.7	0.611
NCI-H2405	0.754	0.741	0.845	0.831	0.695	0.878	0.772	0.794	0.67	0.769	0.708	0.632	0.525	0.566	0.478	0.543	0.455	0.395	0.317	0.201
NCI-H661	0.614	0.567	0.511	0.264	0.231	–	0.862	1.04	0.85	0.93	0.625	0.616	0.567	0.274	0.277	0.387	0.471	0.41	0.31	0.332
